Several values for one entry are separate records, joined by “and”; a condition that tells them apart may be missing. Identical values can stand only once.
Assays:
[1] = biological target: T1, human D1R (Homo sapiens, UniProt P21728); experiment: D1R β-arrestin recruitment assay (DiscoverX PathHunter, CHO-K1 cells); parameters: Emax: dose or concentration left out as unconfirmed; conditions: for increase in dopamine potency (EC50) for β-arrestin recruitment to D1R: 50 μM compound vs DA alone; for Emax: CHO-K1, read-out: increase in dopamine efficacy (Emax) for β-arrestin recruitment to D1R; for agonist activity of PAM alone, β-arrestin recruitment: concentration response with the PAM, no dopamine; for effect on potency of D1R partial agonists: fenoldopam, apomorphine, SKF38393, SKF77434; for D1 Beta-Arrestin: DA + 50 μM PAM, Fold Chg EC50: fold change of dopamine EC50, 50 μM compound; for log β (modulatory effect on dopamine efficacy) / β (modulatory effect on dopamine efficacy): operational model of allosterism; for increase in SKF77434-stimulated response: partial agonist SKF77434 + PAM, text says cAMP accumulation, FIG. 5D legend β-arrestin; for increase in efficacy of SKF38393 / increase in efficacy of apomorphine / increase in efficacy of fenoldopam: β-arrestin recruitment; for increase in efficacy of SKF38393: G-protein biased partial agonist SKF38393 + PAM; for increase in efficacy of apomorphine: partial agonist apomorphine + PAM; for increase in efficacy of fenoldopam: partial agonist fenoldopam + PAM
Description: β-arrestin Recruitment Assay. […] Following 18-24 h of incubation, the cells were treated with the indicated concentrations of compound in PBS buffer containing 0.2 mM sodium metabisulfite, and incubated at 37° C. for 90 min. DiscoverX reagent was added to cells according to the manufacturer's protocol, followed by a 60 min incubation in the dark at room temperature. Luminescence was measured on a Hamamatsu FDSS μ-Cell reader (Hamamatsu, Bridgewater, N.J.) and data were collected using the FDSS software.
The DiscoverX PathHunter β-Arrestin Assay was used to measure β-arrestin reuitment to the D1R following the manufacturer's instructions.

[2] = biological target: β2AR (Homo sapiens, UniProt P07550); experiment: β2AR β-arrestin BRET assay; conditions: 50 μM compound
Description: (§2) Bioluminescence Resonance Energy Transfer (BRET) Assays. Experiments were performed in HEK239 cells transiently transfected with D1R-RLuc8 and β-arrestin-mVenus (β-arrestin BRET) or Gαs-mVenus+β1+γ2 (Gs BRET) using the polyethylenimine (PEI) transfection method. […] Appropriate amounts of DNA were combined with 3 μg/μL PEI per μg of DNA in nonsupplemented DMEM and incubated with the cells overnight. Experiments were performed 48 hours post-transfection. On experiment day, cells were collected and resuspended in Dulbecco's Phosphate-Buffered Saline (DPBS) with Ca2+ and Mg2++0.2 mM sodium metabisulfite+5.5 mM glucose.

[3] = test system: non D1R containing control cells; experiment: Forskolin stimulated cAMP accumulation in non D1R containing control cells; type: cell-based
[4] = biological target: D2R (Homo sapiens, UniProt P14416); experiment: D2R β-arrestin BRET assay; conditions: 50 μM compound
Description: as §2

[5] = biological target: T2, D4R (Homo sapiens, UniProt P21917); experiment: D4 β-arrestin recruitment assay (DiscoverX PathHunter, CHO-K1 cells); type: cell-based; parameters: inferred from the same PathHunter system described for D1R and D5R; host or cells: CHO-K1; conditions: for D4 Beta-Arrestin: DA + 50 μM PAM, Fold Change EC50: fold change of dopamine EC50, 50 μM compound
T2 sequence (P21917 1-419): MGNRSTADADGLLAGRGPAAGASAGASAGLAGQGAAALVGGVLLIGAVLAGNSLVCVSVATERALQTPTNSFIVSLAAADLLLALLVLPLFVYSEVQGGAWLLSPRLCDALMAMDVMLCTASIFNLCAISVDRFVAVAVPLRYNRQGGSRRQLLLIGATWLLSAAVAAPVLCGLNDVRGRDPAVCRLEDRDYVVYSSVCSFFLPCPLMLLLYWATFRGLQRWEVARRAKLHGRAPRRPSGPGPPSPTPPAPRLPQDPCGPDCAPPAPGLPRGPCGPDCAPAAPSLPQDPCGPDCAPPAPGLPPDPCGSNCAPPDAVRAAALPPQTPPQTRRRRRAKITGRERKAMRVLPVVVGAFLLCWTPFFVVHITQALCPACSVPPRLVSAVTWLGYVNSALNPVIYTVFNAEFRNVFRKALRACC
Description: (§1) β-arrestin Recruitment Assay. Agonist-mediated recruitment of β-arrestin-2 to all five DARs was determined using the DiscoveRx PathHunter complementation assay (DiscoverX Inc, Fremont, Calif.), as previously described (Free, et. al., 2014; Conroy, et. al., 2015). […] Following 18-24 h of incubation, the cells were treated with the indicated concentrations of compound in PBS buffer containing 0.2 mM sodium metabisulfite, and incubated at 37° C. for 90 min. DiscoverX reagent was added to cells according to the manufacturer's protocol, followed by a 60 min incubation in the dark at room temperature. Luminescence was measured on a Hamamatsu FDSS μ-Cell reader (Hamamatsu, Bridgewater, N.J.) and data were collected using the FDSS software.

[6] = biological target: T3, D5 (Homo sapiens, UniProt P21918); experiment: D5 cAMP assay; conditions: fold change of dopamine EC50, 50 μM compound
Description: (§3) cAMP Accumulation Assay. Assays were performed on D1R-HEK293 (Codex Biosolutions, Gaithersburg, Md.) cells stably expressing the human D1R. HEK293 cell lines were maintained in Dulbecco's modified Eagles medium, supplemented with 10% fetal bovine serum, 100 U/ml penicillin, 100 μg/ml streptomycin, 1 mM sodium pyruvate, and 250 μg/ml G418 and incubated at 37° C., 5% CO2, and 90% humidity. […] After 18-24 h incubation at 37° C., 5% CO2, and 90% humidity, the media was removed and replaced with 5 μL/well PBS. […] Briefly, antibody and working solution was added to each well according to the manufacturer's protocol, and incubated in the dark at room temperature for 60 min. Following incubation, enzyme acceptor reagent was added to the plates and luminescence (RLU) was measured (FDSS μCell, Hamamatsu Photonics K. K., Bridgewater, N.J.) following a 3 h incubation in the dark at room temperature.

[7] = biological target: T3, D5; experiment: D5R β-arrestin recruitment assay (DiscoverX PathHunter, CHO cells); type: cell-based; parameters: host or cells: CHO-K1; conditions: for D5 Beta-Arrestin: DA + 50 μM PAM, Fold Change EC50: fold change of dopamine EC50, 50 μM compound; for agonist response of PAM alone at D5R: in the absence of DA
Description: as §1, with “Assay.” for “Assay. Agonist-mediated recruitment of β-arrestin-2 to all five DARs was determined using the DiscoveRx PathHunter complementation assay (DiscoverX Inc, Fremont, Calif.), as previously described (Free, et. al., 2014; Conroy, et. al., 2015).”
Each PAM was also examined in the absence of DA as an agonist, as indicated.

[8] = biological target: T1, human D1R; experiment: D1 cAMP accumulation assay (D1R-HEK293 cells, DiscoverX HitHunter); conditions: for increase in dopamine potency for cAMP accumulation: 50 μM compound vs DA alone; for agonist activity for cAMP accumulation: compound alone; for D1 cAMP: DA + 50 μM PAM, Fold Chg EC50: fold change of dopamine EC50, 50 μM compound
Description: as §3

[9] = biological target: T1, human D1R; experiment: [3H]-SCH23390 radioligand competition binding (HEK293 D1R membranes), incl. allosteric ternary complex model; conditions: for log α / α (binding cooperativity between PAM and dopamine): allosteric ternary complex model; for effect on [3H]-SCH23390 binding: compound alone, up to 50 μM; for leftward shift of dopamine competition curve (increase in dopamine affinity): dopamine competition with [3H]-SCH23390, increasing concentrations of compound; for decrease of [3H]-SCH23390 binding: highest concentration tested, 50 μM
[10] = biological target: T2, D4R; experiment: D4R β-arrestin BRET assay; conditions: 50 μM compound
Description: as §2

[11] = biological target: D3R (Homo sapiens, UniProt P35462); experiment: D3R β-arrestin BRET assay; conditions: 50 μM compound
Chain of D3R (P35462 whole entry): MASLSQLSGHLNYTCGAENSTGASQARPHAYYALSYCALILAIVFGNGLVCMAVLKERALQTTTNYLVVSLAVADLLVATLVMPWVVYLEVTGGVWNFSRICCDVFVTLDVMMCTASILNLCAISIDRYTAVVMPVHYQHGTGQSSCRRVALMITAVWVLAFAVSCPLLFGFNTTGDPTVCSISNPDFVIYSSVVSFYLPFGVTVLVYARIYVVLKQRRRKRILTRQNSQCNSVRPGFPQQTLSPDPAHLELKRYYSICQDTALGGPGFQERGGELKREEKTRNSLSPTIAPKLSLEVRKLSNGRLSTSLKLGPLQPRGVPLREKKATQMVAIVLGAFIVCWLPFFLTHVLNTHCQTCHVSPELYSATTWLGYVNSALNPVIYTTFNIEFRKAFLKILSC
Description: as §2

T1 sequence (P21728 whole entry): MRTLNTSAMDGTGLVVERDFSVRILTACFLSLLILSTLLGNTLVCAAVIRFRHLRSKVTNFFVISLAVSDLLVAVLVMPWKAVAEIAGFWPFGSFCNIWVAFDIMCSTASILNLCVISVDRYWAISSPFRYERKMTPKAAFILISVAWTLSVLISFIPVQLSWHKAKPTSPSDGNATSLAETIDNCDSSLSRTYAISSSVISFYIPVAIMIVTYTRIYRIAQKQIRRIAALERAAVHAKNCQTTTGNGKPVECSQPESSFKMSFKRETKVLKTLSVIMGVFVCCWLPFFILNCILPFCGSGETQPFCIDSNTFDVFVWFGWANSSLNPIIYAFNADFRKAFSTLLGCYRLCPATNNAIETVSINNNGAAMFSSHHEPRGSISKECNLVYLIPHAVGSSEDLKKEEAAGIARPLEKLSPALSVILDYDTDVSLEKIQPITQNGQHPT
T3 sequence (P21918 whole entry): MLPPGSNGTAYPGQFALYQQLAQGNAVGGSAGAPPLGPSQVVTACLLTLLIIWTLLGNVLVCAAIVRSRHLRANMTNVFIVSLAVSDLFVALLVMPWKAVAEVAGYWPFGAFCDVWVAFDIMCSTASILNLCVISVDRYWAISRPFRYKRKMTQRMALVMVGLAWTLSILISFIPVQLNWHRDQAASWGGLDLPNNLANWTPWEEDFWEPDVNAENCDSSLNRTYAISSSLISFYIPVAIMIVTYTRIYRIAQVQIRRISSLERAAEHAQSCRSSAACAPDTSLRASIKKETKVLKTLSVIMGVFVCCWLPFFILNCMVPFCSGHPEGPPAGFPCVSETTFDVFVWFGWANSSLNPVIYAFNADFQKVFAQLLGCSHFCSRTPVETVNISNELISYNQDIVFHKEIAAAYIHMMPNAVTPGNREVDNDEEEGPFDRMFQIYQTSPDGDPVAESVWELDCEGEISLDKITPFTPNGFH
Chain of β2AR (P07550 whole entry): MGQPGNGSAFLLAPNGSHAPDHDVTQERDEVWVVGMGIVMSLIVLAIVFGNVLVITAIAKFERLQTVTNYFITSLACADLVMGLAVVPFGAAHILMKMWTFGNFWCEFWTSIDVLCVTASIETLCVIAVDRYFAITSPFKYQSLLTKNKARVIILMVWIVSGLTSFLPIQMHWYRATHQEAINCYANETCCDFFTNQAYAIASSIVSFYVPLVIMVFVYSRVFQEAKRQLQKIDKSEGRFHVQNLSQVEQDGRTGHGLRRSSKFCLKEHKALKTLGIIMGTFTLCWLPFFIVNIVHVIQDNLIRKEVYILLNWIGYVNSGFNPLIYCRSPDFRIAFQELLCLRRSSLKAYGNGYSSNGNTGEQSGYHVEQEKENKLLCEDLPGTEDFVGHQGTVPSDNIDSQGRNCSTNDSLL
Chain of D2R (P14416 whole entry): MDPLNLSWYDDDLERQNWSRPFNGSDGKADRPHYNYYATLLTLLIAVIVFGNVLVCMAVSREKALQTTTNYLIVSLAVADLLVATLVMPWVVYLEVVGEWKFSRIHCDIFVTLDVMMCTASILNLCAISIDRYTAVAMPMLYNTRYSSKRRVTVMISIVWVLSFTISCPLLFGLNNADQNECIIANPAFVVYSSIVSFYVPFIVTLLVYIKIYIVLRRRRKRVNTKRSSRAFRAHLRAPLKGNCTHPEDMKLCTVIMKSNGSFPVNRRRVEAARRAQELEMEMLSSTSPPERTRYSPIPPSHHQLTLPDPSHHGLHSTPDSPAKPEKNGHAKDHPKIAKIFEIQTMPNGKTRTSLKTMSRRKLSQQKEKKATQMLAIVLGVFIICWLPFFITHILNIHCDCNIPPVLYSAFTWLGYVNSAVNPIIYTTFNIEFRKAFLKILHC

Row | Kb [1] [µM] | increase in dopamine potency (EC50) for β-arrestin recruitment to D1R [1] | Emax [1] [%] | effect on potency of D1R partial agonists [1] | D1 Beta-Arrestin: DA + 50 μM PAM, Fold Chg EC50 [1] | log β (modulatory effect on dopamine efficacy) [1] | β (modulatory effect on dopamine efficacy) [1] | increase in SKF77434-stimulated response [1] [%] | increase in efficacy of SKF38393 [1] [%] | increase in efficacy of apomorphine [1] [%] | increase in efficacy of fenoldopam [1] [%] | D4 Beta-Arrestin: DA + 50 μM PAM, Fold Change EC50 [5] | D5 cAMP: DA + 50 μM PAM, Fold Change EC50 [6] | D5 Beta-Arrestin: DA + 50 μM PAM, Fold Change EC50 [7] | agonist response of PAM alone at D5R [7] | increase in dopamine potency for cAMP accumulation [8] | SMILES | agonist activity of PAM alone, β-arrestin recruitment [1] | potentiation of epinephrine response at β2AR [2] | effect on forskolin stimulated cAMP accumulation [3] | potentiation of dopamine response at D2R [4] | also measured
1 | 5.4 | 8 fold | 34 | Neither PAM altered the potency | 8.29 | 0.32±0.1 | 2.09 | 96 | 151 | 134 | 83 | 1.72 | 1.63 | 1.25 | Neither PAM produced an agonist response | 5 fold and 4 fold | CC(C)(C)C1CCc2c(sc(NC(=O)c3ccncc3)c2C(N)=O)C1 (centres unmarked) [Compound 28] | Neither PAM displayed any measurable agonist activity | Neither PAM produced any measurable potentiation | no increase | Neither PAM produced any measurable potentiation | agonist activity for cAMP accumulation [8]: Neither compound 1 (FIGS. 3A and 3B) nor compound 28 (FIGS. 3C and 3D) demonstrated any agonist activity; D1 cAMP: DA + 50 μM PAM, Fold Chg EC50 [8]: 2.93; Kb [9]: 5.37 µM; log α [9]: 0.82±0.11; α (binding cooperativity between PAM and dopamine) [9]: 6.61; effect on [3H]-SCH23390 binding [9]: complete inhibition; leftward shift of dopamine competition curve (increase in dopamine affinity) [9]: ~7 fold; decrease of [3H]-SCH23390 binding [9]: ~66%; potentiation of dopamine response at D4R [10]: Neither PAM produced any measurable potentiation; potentiation of dopamine response at D3R [11]: Neither PAM produced any measurable potentiation
2 | 0.46 | 7 fold and 5 fold and 4.6 fold | 20 | Neither PAM altered the potency | 4.64 | 0.41±0.06 | 2.57 | 130 | 111 | 95 | 48 | 1.06 | 2.14 | 2.56 | Neither PAM produced an agonist response | 3 fold | Cn1c2ccccc2c(=O)c2c(=O)n(-c3ccccc3)c(C3CCCCC3)nc21 [Compound 1, 2-Cyclohexyl-10-methyl-3-phenylpyrimido[4,5-b]quinoline-4,5(3H,10H)-dione] | Neither PAM displayed any measurable agonist activity | Neither PAM produced any measurable potentiation | does not significantly increase | Neither PAM produced any measurable potentiation | Dopamine D1-β-arrestin Assay: DA + 50 μM PAM, Fold Change EC50 ([1]; Table 5, 50 μM compound): 4.64; Dopamine D4-β-arrestin Assay: DA + 50 μM PAM, Fold Change EC50 ([5]; Table 7, 50 μM compound): 1.06; fold change of dopamine EC50 for β-arrestin recruitment to D5R ([7]; 50 μM compound): 2.5 fold; Dopamine D5-β-arrestin Assay: DA + 50 μM PAM, Fold Change EC50 ([7]; Table 6, 50 μM compound): 2.56; agonist activity for cAMP accumulation [8]: Neither compound 1 (FIGS. 3A and 3B) nor compound 28 (FIGS. 3C and 3D) demonstrated any agonist activity; D1 cAMP: DA + 50 μM PAM, Fold Chg EC50 [8]: 1.83; Kb [9]: 0.54 µM; log α [9]: 0.49±0.07; α (binding cooperativity between PAM and dopamine) [9]: 3.09; effect on [3H]-SCH23390 binding [9]: no displacement; leftward shift of dopamine competition curve (increase in dopamine affinity) [9]: ~3 fold; decrease of [3H]-SCH23390 binding [9]: ~17%; potentiation of dopamine response at D4R [10]: Neither PAM produced any measurable potentiation; potentiation of dopamine response at D3R [11]: Neither PAM produced any measurable potentiation
3 |  |  |  |  |  |  |  |  |  |  |  |  |  |  |  |  | CC(C)(C)C1CCc2c(sc(NC(=O)c3cccnc3)c2C(N)=O)C1 (centres unmarked) [Example 2.3, N-(6-(Tert-butyl)-3-carbamoyl-4,5,6,7-tetrahydrobenzo[b]thiophen-2-yl)nicotinamide] |  |  |  |  | melting point: 195 to 209 °C

From patent US20210040074A1 (The United States of America,as represented by the …, priority 2018, published 2021)
